Results as given in patent US20220323594A1, “LIPIDATED CATIONIC PEPTIDE-PEG COMPOSITIONS FOR NUCLEIC ACID DELIVERY” (NUTCRACKER THERAPEUTICS, INC., priority 2019, published 2022).
Where two headings read alike, the source gives them in different places.

Tests used:
[1] = Dynamic light scattering (DLS) of mRNA/peptoid formulations: particle size and polydispersity; assay type: physicochemical; conditions: Fluc mRNA/peptoid formulation; for Size PDI: size polydispersity index by DLS, 5:1 mass ratio; for Size (nm): volume average particle size/diameter by DLS, 5:1 mass ratio peptoid:cargo
Method: (§1) To prepare nanoparticle formulations, the amino lipidated peptoid is mixed by pipetting with nucleic acid at a mass ratio between approximately 1:1 (peptoid:cargo) and 20:1. Prior to formulation, amino lipidated peptoid and nucleic acid cargo were diluted in ethanol and acidic buffer (PBS adjusted to pH 5.5 with 0.1 M HCl) respectively to a volume ratio of 1:3 and to target a final cargo concentration of approximately 0.05 mg/mL to 0.2 mg/mL. The exemplary amino lipidated cationic peptoids described in Example 2 were combined with firefly luciferase (Fluc) mRNA to form nanoparticle compositions to be evaluated for therapeutic and/or prophylactic purposes in vitro or in vivo. The formulations were prepared according to the protocol of Example 3 and mixed by simple pipetting. The mRNA/peptoid formulation at a 5:1 mass ratio of peptoid:cargo were evaluated by dynamic light scattering (DLS) in order to determine the volume average particle size/diameter (nm) of the mRNA/peptoid complex and the size polydispersity index (PDI) within the formulation. The percentage of mRNA encapsulation for each formulation of the exemplary compounds were determined by fluorescence of the Qubit RNA HS (Invitrogen) dye before and after lysis of particles by Triton X-100.

[2] = mRNA encapsulation by fluorescence of Qubit RNA HS dye before and after lysis with Triton X-100; assay type: physicochemical; conditions: percentage of mRNA encapsulation; Fluc mRNA/peptoid formulation, 5:1 mass ratio
Method: as §1, with “The” for “To prepare nanoparticle formulations, the amino lipidated peptoid is mixed by pipetting with nucleic acid at a mass ratio between approximately 1:1 (peptoid:cargo) and 20:1. Prior to formulation, amino lipidated peptoid and nucleic acid cargo were diluted in ethanol and acidic buffer (PBS adjusted to pH 5.5 with 0.1 M HCl) respectively to a volume ratio of 1:3 and to target a final cargo concentration of approximately 0.05 mg/mL to 0.2 mg/mL. The”

HeLa cells [3] = assay: In vitro expression of firefly luciferase (Fluc) after treatment with Fluc mRNA/amino lipidated peptoid formulations, no PEG or 2% DMG-PEG2000; assay type: cell-based
Method: The efficacy of mRNA/amino lipidated peptoid formulations was evaluated in vitro based on their ability to deliver the firefly luciferase (Fluc) reporter gene to cultured cells. Amino lipidated peptoids were combined with Fluc mRNA at a 5:1 w/w ratio, and the resulting particles were added to cultured HeLa cells at a dose of 100 ng/well (in 100 μL total volume). The resulting luciferase expression (RLU) was measured by a luminescence plate reader after 6 hours and 24 hours of treatment. […] In addition to evaluating nanoparticle complexes formed between mRNA cargos and amino lipidated peptoids alone, multicomponent formulations containing a small amount of PEG-lipid DMG-PEG2000 were also tested for in vitro Fluc mRNA delivery. In these formulations, DMG-PEG2000 was pre-mixed with candidate peptoid at an overall 2% incorporation (w/w), while maintaining the same 5:1 mass ratio of peptoid:mRNA used previously.

HeLa cells [4] = assay: In vitro Fluc expression with variable peptoid:mRNA mass ratio, 2% DMG-PEG2000; assay type: cell-based; conditions: 24 h; for Observed Luciferase Expression (RLU) for Given Formulation Mass Ratio 2:1: 2% (w/w) DMG-PEG2000, peptoid:mRNA 2:1; for Observed Luciferase Expression (RLU) for Given Formulation Mass Ratio 3.5:1: 2% (w/w) DMG-PEG2000, peptoid:mRNA 3.5:1; for Observed Luciferase Expression (RLU) for Given Formulation Mass Ratio 5:1: 2% (w/w) DMG-PEG2000, peptoid:mRNA 5:1; for Observed Luciferase Expression (RLU) for Given Formulation Mass Ratio 7.5:1: 2% (w/w) DMG-PEG2000, peptoid:mRNA 7.5:1
Method: The charge ratio dependence of amino lipidated peptoid delivery vehicles was evaluated by formulating particles between Fluc mRNA and delivery vehicles at varying mass ratios. Formulations were varied between 2:1 and 7.5:1 peptoid:mRNA (w/w) ratios (2:1, 3.5:1, 5:1 and 7.5:1). In addition, the role of DMG-PEG2000 was also explored with the mass ratios, either by excluding DMG-PEG2000 or incorporating DMG-PEG2000 at 2% (w/w) relative to amino lipidated peptoid. Fluc expression from these formulations was measured in HeLa cells following treatment for 24 hours. […] FIGS. 6B and 6C show plots of the average bioluminescence (RLU) for HeLa cells treated with the formulations of exemplary amino lipidated cationic peptoid compounds 1-36, all formulated with 2% w/w DMG-PEG2000.

[5] = MTT viability assay after treatment with Fluc mRNA/amino lipidated peptoid formulations; assay type: cell-based; conditions: human, HeLa cells
Method: Cellular viability was measured following treatment with Fluc mRNA/amino lipidated peptoid formulations by a traditional MTT viability assay. […] In this assay, cells were first treated with peptoid formulations at a final mRNA concentration of 100 ng/well for 8 hours. Cells were then left to grow for 48 hours, after which time they were exposed to 1.5 mg/mL 3-(4,5-dimethylthiazol-2-yl)-2,5-diphenyltetrazolium bromide (MTT) for 2 hours, then lysed using a solubilizing solution of 10% Triton-X 100 in acidic isopropanol (0.1N HCl). The signal corresponding to reduced formazan was normalized to untreated cells to provide a relative viability of each treated condition. […] In general, nearly all conditions maintained at least 80% viability with the only exceptions being formulations of compound 5, 34, and 35.

[6] = no PEG, peptoid:Fluc mRNA 5:1 w/w, 100 ng/well, 6 h of treatment
[7] = no PEG, peptoid:Fluc mRNA 5:1 w/w, 100 ng/well, 24 h of treatment
[8] = with 2% (w/w) DMG-PEG2000, peptoid:mRNA 5:1, 6 h after treatment
[9] = with 2% (w/w) DMG-PEG2000, peptoid:mRNA 5:1, 24 h after treatment

SMILES | Size PDI [1] | Size (nm) [1] [nm] | % Encapsulation [2] [%] | Luciferase Expression (RLU) 6 h (HeLa cells [3]; [6]) [RLU] | Luciferase Expression (RLU) 24 h (HeLa cells [3]; [7]) [RLU] | Luciferase Expression (RLU) 6 h (HeLa cells [3]; [8]) [RLU] | Luciferase Expression (RLU) 24 h (HeLa cells [3]; [9]) [RLU] | Observed Luciferase Expression (RLU) for Given Formulation Mass Ratio 2:1 (HeLa cells [4]) [RLU] | Observed Luciferase Expression (RLU) for Given Formulation Mass Ratio 3.5:1 (HeLa cells [4]) [RLU] | Observed Luciferase Expression (RLU) for Given Formulation Mass Ratio 5:1 (HeLa cells [4]) [RLU] | Observed Luciferase Expression (RLU) for Given Formulation Mass Ratio 7.5:1 (HeLa cells [4]) [RLU] | viability at 8 h, 500 ng/well ([5]; Relative Viability (%) 2% PEG) [%] | viability at 8 h, 500 ng/well ([5]; Relative Viability (%) No PEG) [%] | viability at 8 h, 500 ng/well ([5]; viability) [%] | viability at 8 h, 500 ng/well ([5]; MTT, 2% (w/w) DMG-PEG2000, 5:1 mass ratio, 100 ng/well mRNA for 8 h then 48 h growth, normalized to untreated cells, read-out: Relative Viability (%) 2% PEG) [%] | viability at 8 h, 500 ng/well ([5]; MTT, formulation alone (no PEG), 5:1 mass ratio, 100 ng/well mRNA for 8 h then 48 h growth, normalized to untreated cells, read-out: Relative Viability (%) No PEG) [%]
CCCCCCCCN(CC(N)=O)C(=O)CN(CCCCCCCC)C(=O)CN(CCc1ccccc1)C(=O)CN(CCc1ccccc1)C(=O)CN(CCN)C(=O)CN(CCc1ccccc1)C(=O)CN(CCc1ccccc1)C(=O)CN(CCN)C(=O)CN(CCc1ccccc1)C(=O)CN(CCc1ccccc1)C(=O)CNCCN [Compound 1] | 0.047 | 356.9 | 90.1 | 1.22E+02 | 4.00E+01 | 2.09E+02 | 8.67E+00 | 6.82E+02 | 3.12E+02 | 2.31E+02 | 3.35E+01 | 88.1 | 97.4 |  |  | 
CCCCCCCCCCCCN(CC(N)=O)C(=O)CN(CCCCCCCCCCCC)C(=O)CN(CCc1ccccc1)C(=O)CN(CCc1ccccc1)C(=O)CN(CCN)C(=O)CN(CCc1ccccc1)C(=O)CN(CCc1ccccc1)C(=O)CN(CCN)C(=O)CN(CCc1ccccc1)C(=O)CN(CCc1ccccc1)C(=O)CNCCN [Compound 3] | 0.247 | 255.3 | 95.9 | 2.27E+02 | 2.99E+02 | 3.14E+02 | 4.68E+02 | 4.42E+03 | 2.56E+03 | 4.53E+03 | 2.69E+03 | 95.3 | 91.2 |  |  | 
CCCCCCCCCCCCN(CC(N)=O)C(=O)CN(CCCCCCCCCCCC)C(=O)CN(CCc1ccc(OC)cc1)C(=O)CN(CCc1ccc(OC)cc1)C(=O)CN(CCN)C(=O)CN(CCc1ccc(OC)cc1)C(=O)CN(CCc1ccc(OC)cc1)C(=O)CN(CCN)C(=O)CN(CCc1ccc(OC)cc1)C(=O)CN(CCc1ccc(OC)cc1)C(=O)CNCCN [Compound 4] | 0.191 | 326.7 | 99.0 | 1.96E+02 | 1.13E+02 | 3.16E+02 | 3.09E+02 | 3.27E+03 | 1.32E+03 | 7.84E+03 | 1.14E+03 | 89.7 | 90.4 |  |  | 
CCCCCCCCCCCCCCCCCCN(CC(N)=O)C(=O)CN(CCCCCCCCCCCCCCCCCC)C(=O)CN(CCc1ccccc1)C(=O)CN(CCc1ccccc1)C(=O)CN(CCN)C(=O)CN(CCc1ccccc1)C(=O)CN(CCc1ccccc1)C(=O)CN(CCN)C(=O)CN(CCc1ccccc1)C(=O)CN(CCc1ccccc1)C(=O)CNCCN [Compound 5] | 0.308 | 364.7 | 88.3 | 9.60E+01 | 5.36E+02 | 3.46E+02 | 1.22E+02 | 5.81E+02 | 1.15E+03 | 9.21E+02 | 1.14E+03 | 91.2 | 56.8 | < 80 |  | 
CCCCCCCCCCN(CC(N)=O)C(=O)CN(CCc1ccccc1)C(=O)CN(CCc1ccccc1)C(=O)CN(CCN)C(=O)CN(CCc1ccccc1)C(=O)CN(CCc1ccccc1)C(=O)CN(CCN)C(=O)CN(CCc1ccccc1)C(=O)CN(CCc1ccccc1)C(=O)CNCCN [Compound 6] | 0.348 | 448.6 | 92.4 | 4.30E+01 | 3.60E+01 | 1.38E+02 | 2.13E+01 | 8.18E+01 | 8.18E+01 | 6.97E+01 | 4.56E+01 |  |  |  | 88.9 | 88
